# In publication doi:10.1101/2020.11.09.375162v1 (biorxiv, 2020):
# Like-named read-outs stand apart in the source and are kept apart here.
# Columns and labels:
# [1] = target: T1, human CB2 receptor (hCB2) (Homo sapiens, UniProt P34972); assay: PathHunter beta-arrestin recruitment, CHO-K1; assay type: cell-based
# [2] = target: T2, mouse CB2 receptor (mCB2) (Mus musculus, UniProt P47936); assay: cAMP assay, CHO cells; assay type: cell-based; details: agonist
# [3] = target: T3, human CB1 receptor (hCB1) (Homo sapiens, UniProt P21554); assay: PathHunter beta-arrestin recruitment, CHO-K1; assay type: cell-based
# T3 sequence (P21554 whole entry): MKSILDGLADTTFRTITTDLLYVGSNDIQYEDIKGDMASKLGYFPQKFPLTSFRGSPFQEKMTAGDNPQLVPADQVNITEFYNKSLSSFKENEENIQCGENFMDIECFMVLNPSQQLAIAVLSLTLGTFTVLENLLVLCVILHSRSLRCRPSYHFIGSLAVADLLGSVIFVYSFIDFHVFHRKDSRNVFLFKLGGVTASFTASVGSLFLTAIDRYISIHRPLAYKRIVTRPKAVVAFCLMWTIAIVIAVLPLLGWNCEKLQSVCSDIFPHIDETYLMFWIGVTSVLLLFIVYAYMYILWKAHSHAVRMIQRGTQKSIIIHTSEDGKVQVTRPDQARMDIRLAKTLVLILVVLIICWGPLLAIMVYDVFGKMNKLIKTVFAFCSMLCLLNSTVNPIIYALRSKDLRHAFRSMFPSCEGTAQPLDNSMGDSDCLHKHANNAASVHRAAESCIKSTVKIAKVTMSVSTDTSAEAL
# [4] = target: T3, human CB1 receptor (hCB1); assay: [3H]-CP55940 competition, membranes; assay type: binding
# [5] = target: T1, human CB2 receptor (hCB2); details: Gi1 activation
# [6] = target: T1, human CB2 receptor (hCB2); details: Gi2 activation
# [7] = target: T1, human CB2 receptor (hCB2); details: Gi3 activation
# [8] = target: T1, human CB2 receptor (hCB2); details: GoA activation
# [9] = target: T1, human CB2 receptor (hCB2); details: GoB activation
# [10] = target: T1, human CB2 receptor (hCB2); details: beta-arrestin1 recruitment
# [11] = target: T1, human CB2 receptor (hCB2); details: beta-arrestin2 recruitment
# [12] = target: T3, human CB1 receptor (hCB1); assay: biochemical
# [13] = target: T1, human CB2 receptor (hCB2); assay: cell-based; details: read-out: cAMP Emax hCB2
# [14] = target: T3, human CB1 receptor (hCB1); assay: cell-based; details: read-out: cAMP Emax hCB1
# [15] = target: T2, mouse CB2 receptor (mCB2); assay: cell-based; details: read-out: cAMP Emax mCB2
# [16] = target: T1, human CB2 receptor (hCB2); assay: [3H]-CP55940 competition, membranes; assay type: binding
# [17] = target: T2, mouse CB2 receptor (mCB2); assay: [3H]-CP55940 competition, membranes; assay type: binding
# [18] = target: T2, mouse CB2 receptor (mCB2); assay: cell-based
# [19] = target: T3, human CB1 receptor (hCB1); assay: [3H]-CP55940 competition, membranes; assay type: binding; remark: listed apart in the source
# [20] = target: T3, human CB1 receptor (hCB1); assay: cAMP assay, CHO cells; assay type: cell-based; details: agonist
# [21] = target: T2, mouse CB2 receptor (mCB2); assay: biochemical
# [22] = target: T3, human CB1 receptor (hCB1); assay: cell-based
# [23] = target: T2, mouse CB2 receptor (mCB2); assay: cAMP assay, CHO cells; assay type: cell-based
# T2 sequence (P47936 whole entry): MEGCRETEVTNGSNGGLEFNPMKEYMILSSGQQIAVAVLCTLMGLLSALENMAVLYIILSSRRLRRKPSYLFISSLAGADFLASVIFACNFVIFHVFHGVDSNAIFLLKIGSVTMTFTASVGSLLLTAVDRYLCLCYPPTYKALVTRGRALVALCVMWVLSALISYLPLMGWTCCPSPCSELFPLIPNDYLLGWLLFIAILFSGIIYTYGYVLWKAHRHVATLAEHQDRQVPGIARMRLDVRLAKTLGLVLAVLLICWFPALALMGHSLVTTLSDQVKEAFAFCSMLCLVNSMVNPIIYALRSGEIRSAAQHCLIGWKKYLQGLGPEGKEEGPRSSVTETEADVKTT
# T1 sequence (P34972 whole entry): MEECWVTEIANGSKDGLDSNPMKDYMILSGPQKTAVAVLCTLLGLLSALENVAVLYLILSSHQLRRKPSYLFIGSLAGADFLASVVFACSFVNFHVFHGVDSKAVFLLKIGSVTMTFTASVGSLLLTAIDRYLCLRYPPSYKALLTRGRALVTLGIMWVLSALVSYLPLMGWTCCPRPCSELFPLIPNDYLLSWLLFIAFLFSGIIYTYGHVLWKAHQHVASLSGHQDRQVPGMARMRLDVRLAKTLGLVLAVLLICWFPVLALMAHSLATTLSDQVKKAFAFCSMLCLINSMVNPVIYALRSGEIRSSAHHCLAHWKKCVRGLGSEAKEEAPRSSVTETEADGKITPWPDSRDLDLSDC
compound,measurement,setting,value
CN1CCCCC1Cn1cc(C(=O)c2cc([N+](=O)[O-])ccc2I)c2ccccc21 (racemic) [(rac)-AM1241],EC50,[1],> 10 µM
CCCCCCC(C)(C)c1ccc([C@@H]2C[C@H](O)CC[C@H]2CCCO)c(O)c1 [CP55940],cAMP pEC50,[2],10.17
CCCCCCC(C)(C)c1cc(OC)c([C@@H]2C=C(CO)[C@@H]3C[C@H]2C3(C)C)c(OC)c1 [HU308],EC50,[3],> 10 µM
same,Ki,[4],> 10 µM
CCN1CCN(c2nc(C3CC3)nc3c2nnn3Cc2ccccc2Cl)CC1 [RO6435559],Gi1 pEC50,[5],7.984 M
same,Gi2 pEC50,[6],8.154 M
same,Gi3 pEC50,[7],7.941 M
same,GoA pEC50,[8],7.998 M
same,GoB pEC50,[9],7.794 M
same,β-arrestin1 pEC50,[10],8.518 M
same,β-arrestin2 pEC50,[11],8.131 M
CCOC(=O)C(CC)(CC)NC(=O)c1ccc(N2CCCC2)c(OCC2CC2)n1 [RO6843766],Ki,[12],0.617 µM
same,Emax,[13],91%
same,Emax,[14],59%
same,Emax,[15],61%
CN1CCN(c2nc(C(C)(C)C)nc3c2nnn3Cc2ccccc2Cl)CC1 [RO6844395],pKi,[16],7.67
same,pKi,[17],6.87
same,pKi hCB1,[12]; binder,5.76 M
same,Emax,[13],99%
same,Emax,[14],57%
same,cAMP pEC50 mCB2,"[18]; cAMP, agonist",7.30 M
same,Emax,[15],80%
same,Gi1 pEC50,[5],7.855 M
same,Gi2 pEC50,[6],7.499 M
same,Gi3 pEC50,[7],7.994 M
same,GoA pEC50,[8],7.607 M
CCOC(=O)[C@H](CC(C)C)NC(=O)c1ccc(C2CC2)c(Cc2ccc(F)cc2)n1 [RO6853973],pKi,[19],8.21
same,pKi,[16],9.45
same,cAMP pEC50,[20],8.12
same,Ki,[21],0.676 nM
same,Emax,[13],45%
same,Emax,[14],83%
same,EC50,[18],> 10 µM
same,Emax,[15],23%
O=S(=O)(Cc1ccccc1)c1nc(N2CCC(F)(F)C2)c2nnn(Cc3ccccc3Cl)c2n1 [RO6871487],Ki,[12],4.57 µM
same,Ki,[21],6.92 nM
same,Emax,[13],52%
same,EC50,[22],> 10 µM
same,Emax,[14],9%
same,EC50,[18],> 10 µM
same,Emax,[15],24%
OCCSc1nc(N2CCC(F)(F)C2)c2nnn(Cc3ccccc3Cl)c2n1 [RO6878558],pKi,[16],6.94
same,Ki,[12],> 10 µM
same,Emax,[13],87%
same,EC50,[22],> 10 µM
same,Emax,[14],20%
same,Emax,[15],92%
"CC(C)(C)c1noc(-c2ccc(C3CC3)c(Cc3ccc(F)cc3)n2)n1 [RO6892033, 6-(3-tert-Butyl-1,2,4-oxadiazol-5-yl)-3-cyclopropyl-2-[(4-fluorophenyl)methyl]pyridine]",EC50,[23],4.07 nM
same,Ki,[21],7.59 nM
same,Emax,[13],66%
same,Emax,[14],70%
same,Emax,[15],45%
CC(C)(C)c1nc(-c2cc(OCc3ccc(F)cc3)c(C3CC3)c(Cl)n2)no1 [RO6926274],cAMP pEC50,[23],< 5
